From patent US20240271071A1, “METHOD AND APPARATUS FOR FORMING A MICROFLUIDIC GEL STRUCTURE” (Mimetas B.V., priority 2021, published 2024)

Test system: HCAEC and HCASMC co-culture
Assay: Visualising contractile lumen (vasodilation/vasoconstriction) in coronary artery tubule model
Assay type: cell-based, Human
Details: Sildenafil at day 6, 5 μM, 50 μM and 500 μM, after Norepinephrine at day 3; phase contrast images, 30 minutes post-exposure
Experimental: For this example, a 3-lane OrganoPlate® ([…]) with 400 μm wide lanes was used, which comprises a microfluidic network of 3 lanes and two capillary pressure barriers. The network was filled with 50 μL HBSS in the observation window (the point where the 3 lanes converge) to provide additional humidity to the plate. The central lane was filled at the inlet with a neutralised bovine type I atelocollagen solution PureCol® EZ Gel 5 mg/ml (Advanced BioMatrix); the solution was pinned at the capillary pressure barrier leaving a free-standing meniscus at the air-liquid interface in the upper and lower lane. A 30 μL solution of HBSS was introduced into the inlet of the centre lane, and a 1 μL solution of 5% FBS in PBS was introduced at the hole of the outlet of the centre lane forming a dome shape as in Example 1. […] After 1 minute 50 μL of HBSS was added to the outlet and the OrganoPlate was placed in a humidity-controlled environment at 37° C. and 5% CO2 for 1 hour. For cell seeding, 1 μL of a cell suspension containing 10,000 cell/μL Primary Human Coronary Artery Endothelial Cells (HCAEC) and 2,500 cell/μL Primary Human Coronary Artery Smooth Muscle Cells (HCASMC) was seeded in the outlet of the middle lane. The cell suspension was driven into the microfluidic network by means of Laplace pressure due to the surface tension of the cell pellet. Cells were left to attach for between 2-6 hours. […]

## CCCc1nn(C)c2c(=O)[nH]c(-c3cc(S(=O)(=O)N4CCN(C)CC4)ccc3OCC)nc12 [Sildenafil]
  contraction of the tubule / change of lumen diameter upon exposure to a stimulus: contraction
